Results on 8 molecules are retold here after US20170183306A1, “CYCLIC COMPOUNDS HAVING A 1,3 DIAMINO-FUNCTIONALITY FOR USE IN THE TREATMENT OF HIV INFECTION” (Universite Paris Descartes, priority 2014, published 2017).

Like-named read-outs stand apart in the source and are kept apart here.

Holding throughout (type): cell-based
In series [1] the test system is wild type NL4-3 virus (HIV-1) in HeLa-p4 cells. Put plainly: HeLa-p4 single-cycle HIV-1 infectivity, beta-galactosidase CPRG test. Particulars: 48 hours after infection, control = NL4-3 virus alone; for activity at 50 µM / activity at 100 µM / activity at 200 µM: Human immunodeficiency virus 1, NL43, HeLaP4; for activity at 50 µM: read-out: Hela-p4 CPRG 50 μM; for activity at 100 µM: read-out: Hela-p4 CPRG 100 μM. As for the experimental part:
(§1) HeLa-p4 cells are HeLa CD4 LTR-LacZ wherein LacZ expression is induced by the trans-activating protein Tat of HIV, making possible the precise quantification of HIV-1 infectivity from a single replication cycle. HeLa-CD4 cells growing exponentially at a density of 1×10^4/mL were placed in 96-well plates and infected the following day with 1 ng of HIV p24 antigen in the presence of different concentrations of compounds. The titles for a single cycle of the viruses were determined 48 hours after infection by quantifying the beta-galactosidase activity in lysates P4 by colorimetric test (CPRG, Promega) based on the cleavage of chlorophenol red-beta-D-galactopyranoside (CPRG) by beta-galactosidase. A cell viability assay measuring the absorbance at […] using the yellow tetrazolium reagent MTS [[…]] (Promega) was carried out.
(§2) For the helap4 cells experiments, the efficacy of the compounds is determined in comparison with control cells containing wild type NL4-3 virus alone (i.e. without any added compound) and is expressed as percentage of control. Then, the viral replication was increased for several compounds at the 50 and 100 μM concentrations with an absence of cytotoxic effects at the same concentrations (MTS test) (table 1).

Series [2] has as its system HeLa-p4 cells. Put plainly: Cell viability assay (MTS) on HeLa-p4 cells. As for the experimental part:
as §1, §2

Series [3] relates to J-Lat cells. Put plainly: J-Lat cells, percentage of GFP-positive cells by cytometry. Particulars: 24 h, compound alone. As for the experimental part: The J-Lat were grown in RPMI 1640 medium (Gibco-BRL) supplemented with 10% fetal bovine serum, 50 U/ml of penicillin, […] of streptomycin at 37 uC in a humidified 95% air/5% CO2 atmosphere. The cells were plated at 5.105 cells in a 96 well-plate. TNF ? was purchased from Immunosource. SAHA (suberoylanilide hydroxamic acid), prostratin (12-deoxyphorbol-13-acetate) and vorinostat were obtained from Sigma-Aldrich. The J-Lat cells were treated for 24 h with the different compounds alone. The cells were washed twice in PBS, re-suspended in PBS containing 4% paraformaldehyde and fixed for 30 min. Cells were next washed and re-suspended in PBS. The percentage of GFP-positive cells was measured with a LSRFortessa cytometer (Becton-Dickinson) using FACSDiva Version 6.1.3 according to the manufacturer's instructions.
The results for the J-Lat cells experiments are expressed as a percentage of the living fluorescent cells. In this model, some slight increase of viral production measured by fluorescence are quantified (table 1).

With `COc1ccc(-c2ccc(N3C[C@H](N)C[C@H](N)C3)cc2)cc1` [ECO02-029-C, 1-(4′-methoxy-[1,1′-biphenyl]-4-yl)piperidine-3,5-diamine4-(2-((3S,5R)-3,5-diaminopiperidin-1-yl)ethyl)phenol], in series [1] (50 μM), the activity at 50 µM is 29%. In series [1] (100 μM), the activity at 100 µM was 30%. The “Hela-p4 MTS 50 μM” value in series [2] (50 μM, cell viability) is on record as 25. For the same molecule, the “Hela-p4 MTS 100 μM” value in series [2] (100 μM, cell viability) came out at 25. Besides, the “J-lat 50 μM” value in series [3] was 2.4 percentage of the living fluorescent cells.
For `COc1ccc(N2C[C@H](N)C[C@H](N)C2)cc1` [ECO01-056-C, 1-(4-methoxyphenyl)piperidine-3,5-diamine], in series [1] (50 μM), the activity at 50 µM was 94%. Further, in series [1] (100 μM), the activity at 100 µM was determined as 122%. In series [2] (50 μM, cell viability), the “Hela-p4 MTS 50 μM” value was 68. For the same molecule, the “Hela-p4 MTS 100 μM” value in series [2] (100 μM, cell viability) is 81. Moreover, in series [3], the “J-lat 50 μM” value was 0.1 percentage of the living fluorescent cells and the “J-lat 100 μM” value is given as 0.2 percentage of the living fluorescent cells.
As to `N[C@@H]1C[C@H](N)CN(CCCCc2ccccc2)C1` [ECO02-026-C, 1-(4-phenylbutyl)piperidine-3,5-diamine], the activity at 50 µM in series [1] (50 μM) worked out at 30%. For the same molecule, the activity at 100 µM in series [1] (100 μM) amounted to 31%. Moreover, in series [2] (50 μM, cell viability), the “Hela-p4 MTS 50 μM” value is 26. Besides, in series [2] (100 μM, cell viability), the “Hela-p4 MTS 100 μM” value turned out to be 26. The “J-lat 50 μM” value in series [3] was 65.0 percentage of the living fluorescent cells.
As for “1-(3,5-diaminopiperidin-1-yl)-2-(3-methoxyphenyl)ethanone [ECO02-031-C]”, the “Hela-p4 CPRG 50 μM” value in series [1] (50 μM) is listed as 146 percentage of control. Moreover, in series [1] (100 μM), the “Hela-p4 CPRG 100 μM” value was 222 percentage of control. In series [2], the “Hela-p4 MTS 50 μM” value turned out to be 116 and the “Hela-p4 MTS 100 μM” value is listed as 110. In series [3], the “J-lat 50 μM” value is 0.2 percentage of the living fluorescent cells and the “J-lat 100 μM” value was 0.1 percentage of the living fluorescent cells.
For `Cc1ccc(CCN2C[C@H](N)C[C@H](N)C2)cc1` [ECO01-029-C, 1-(4-methylphenethyl)piperidine-3,5-diamine], the activity at 50 µM in series [1] (50 μM) stood at 126%. Further, the activity at 100 µM in series [1] (100 μM) came out at 109%. Also, the “Hela-p4 MTS 50 μM” value in series [2] (50 μM, cell viability) turned out to be 94. In series [2] (100 μM, cell viability), the “Hela-p4 MTS 100 μM” value turned out to be 89. Moreover, in series [3], the “J-lat 50 μM” value is recorded as 0.1 percentage of the living fluorescent cells and the “J-lat 100 μM” value was 15.8 percentage of the living fluorescent cells.
Regarding `COc1cccc(CCN2C[C@H](NC(=O)OC(C)(C)C)C[C@H](NC(=O)OC(C)(C)C)C2)c1` [ECO03-03-C, di-tert-butyl (1-(3-methoxyphenethyl)piperidine-3,5-diyl)dicarbamate], in series [1] (50 μM), the activity at 50 µM amounted to 148%. Besides, the activity at 100 µM in series [1] (100 μM) turned out to be 341%. For the same molecule, the activity at 200 µM in series [1] is 440%. Also, the “Hela-p4 MTS 50 μM” value in series [2] (50 μM, cell viability) turned out to be 105. The “Hela-p4 MTS 100 μM” value in series [2] (100 μM, cell viability) came to 104. Moreover, in series [2] (cell viability), the “Hela-p4 MTS 200 μM” value is given as 104. For the same molecule, in series [3], the “J-lat 50 μM” value was 0.4 percentage of the living fluorescent cells.
With `COc1ccc(CCN2C[C@H](N)C[C@H](N)C2)cc1OC` [AB-77, (3S,5R)-1-(3,4-dimethoxyphenethyl)piperidine-3,5-diamine], in series [1] (50 μM), the activity at 50 µM is 165%. Also, in series [1] (100 μM), the activity at 100 µM was determined as 184%. Moreover, the activity at 200 µM in series [1] is 310%. Also, the “Hela-p4 MTS 50 μM” value in series [2] (50 μM, cell viability) came out at 93. For the same molecule, the “Hela-p4 MTS 100 μM” value in series [2] (100 μM, cell viability) is reported as 97. In series [2] (cell viability), the “Hela-p4 MTS 200 μM” value was determined as 69. In series [3], the “J-lat 50 μM” value is reported as 0.1 percentage of the living fluorescent cells and the “J-lat 100 μM” value is recorded as 0.8 percentage of the living fluorescent cells.
`N[C@@H]1C[C@H](N)CN(c2cccc(C(=O)Nc3ccccc3)c2)C1` [ECO02-003-C, 3-(3,5-diaminopiperidin-1-yl)-N-phenylbenzamide]: the activity at 50 µM in series [1] (50 μM) was determined as 140%. In series [1] (100 μM), the activity at 100 µM was determined as 118%. Besides, the “Hela-p4 MTS 50 μM” value in series [2] (50 μM, cell viability) stood at 105. Also, in series [2] (100 μM, cell viability), the “Hela-p4 MTS 100 μM” value was 60. In series [3], the “J-lat 50 μM” value is 0.4 percentage of the living fluorescent cells and the “J-lat 100 μM” value was 0.5 percentage of the living fluorescent cells.
